Reference: patent US20040106802A1, “Novel compounds and therapeutic uses thereof” (TORRENT PHARMACEUTICALS LTD., priority 2002, published 2004)
Structures can show the parent of a compound that is named as a salt.

Each compound was assayed against T1, Porcine DPP-IV (Sus scrofa, UniProt P22411) (assay: Assay of DPP-IV enzyme inhibitory activity (spectrophotometric, Gly-Pro-pNA cleavage)). Conditions: Porcine DPP-IV, Gly-Pro-pNA substrate, 30° C.; mean ± SD of three experiments except compound Nos. 133 & 139; read-out: IC50 (μM) Mean ± SD, inhibitory activity on DPP-IV enzyme activity.
T1 construct: purchased Sigma-Aldrich Germany
Format: biochemical
Method: Assay of DPP-IV Enzyme Inhibitory Activity.
The assay method is a modified method (as described by Welch et al, 1998) based on spectrophotometric determination of the product formed by penultimate proline cleaving activity of the enzyme.
Assay protocol involves incubation of the enzyme dipeptidyl peptidase IV with the test substance at 30° C. for 30 min followed by addition of this reaction mixture to the substrate Gly-Pro-pNA that was equilibrated at 30° C. for 2 min. The enzyme cleaves the substrate at penultimate proline and releases p-nitroanilide, the optical density of which is measured at 385 nm. The formation of p-nitroanilide will be reduced in the presence of inhibitor. […] The activity of molecule is expressed in terms of % inhibition. At least three different concentrations were tried out for each of the test substances. The percentage inhibitions for each of the concentrations were plotted and an IC50 of the test compound was worked out. The enzyme inhibitory activity of different test compounds were compared based on the IC50 values.
The percentage inhibition % I, is calculated using the formula:
% I=[(1−vi/v0)]*100 where vi and v0 are the Vmax values with and without the test substance, respectively.
Substrate solution: 0.5 mM in 45 mM phosphate buffer
Substrate used: Gly-Pro-p-nitroanilide (Source: Sigma-Aldrich Co. Germany)
3.288 mg substrate in 1 ml 45 mM phosphate buffer was prepared as stock solution. 0.25 ml of this stock solution was diluted to 5 ml to get 0.5 mM substrate solution (90 μl to be added in each well). The stock solution of the substrate was used within three days of preparation.
Enzyme solution: Porcine DPP-IV (Sigma-Aldrich Germany) was used throughout the study. 0.4 mU in 80 μl of Tris. HCl buffer was prepared. Fresh solutions were prepared everyday for the assays.
Various concentrations of inhibitor were used: 0.391 μM, 0.781 μM, and 3.125 μM. Solutions of inhibitor were prepared and used on the same day.
280 μl of enzyme solution (0.4-mU/80 μl in Tris HCl buffer) was added to the eppendorf containing 70 μl solution of inhibitor or vehicle and mixed. This reaction mixture was incubated for 30 min at 30° C. The 96 well plate containing substrate solution was thermally equilibrated in the spectrophotometer for 2 min at 30° C. Later 100 μl of the enzyme-inhibitor pre-incubation solution was added to respective wells in a 96 well plate. Each concentration of the inhibitor was tested in triplicates.
The rate of change in UV absorbance (in presence of various concentrations of the inhibitor) was measured at 385 nm, with respect to wells containing only 0.5 mM substrate in 45 mM phosphate buffer as blank at every 10 min for 2 hours after adding enzyme-inhibitor mixture to wells containing substrate solution.

T1 sequence (P22411 whole entry): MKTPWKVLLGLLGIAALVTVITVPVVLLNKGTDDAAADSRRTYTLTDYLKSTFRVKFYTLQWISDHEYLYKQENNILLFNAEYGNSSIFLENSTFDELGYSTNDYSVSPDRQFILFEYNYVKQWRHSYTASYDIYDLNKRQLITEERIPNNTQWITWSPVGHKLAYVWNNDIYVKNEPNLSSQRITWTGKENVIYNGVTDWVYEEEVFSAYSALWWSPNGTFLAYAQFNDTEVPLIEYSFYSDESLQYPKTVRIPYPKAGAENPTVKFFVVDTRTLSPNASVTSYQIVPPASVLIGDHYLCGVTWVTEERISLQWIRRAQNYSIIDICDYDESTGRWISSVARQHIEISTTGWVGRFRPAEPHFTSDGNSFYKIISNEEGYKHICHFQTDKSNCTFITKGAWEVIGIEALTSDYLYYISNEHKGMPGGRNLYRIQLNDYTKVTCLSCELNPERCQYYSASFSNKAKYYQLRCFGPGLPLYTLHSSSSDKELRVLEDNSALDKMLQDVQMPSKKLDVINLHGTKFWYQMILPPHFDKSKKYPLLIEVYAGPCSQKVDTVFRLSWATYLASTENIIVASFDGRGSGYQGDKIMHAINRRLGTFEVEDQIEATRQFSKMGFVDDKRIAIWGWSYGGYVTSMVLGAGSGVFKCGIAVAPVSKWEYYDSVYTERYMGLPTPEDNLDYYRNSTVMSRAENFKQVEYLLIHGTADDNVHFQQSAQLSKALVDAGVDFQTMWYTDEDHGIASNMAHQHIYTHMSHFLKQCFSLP

| SMILES | IC50 |
| --- | --- |
| N#CC1CSCN1C(=O)CN(N)C1CCN(CC(=O)N2CCOCC2)CC1 (centres unmarked) [Compound No. 107, 3-[1-oxo-2-[1-(1-(−2-oxo-2(morpholin-4-yl)ethyl)piperidin-4-yl)]hydrazino]ethyl-4-cyanothiazolidine bis-trifluoroacetate] | 0.525 ± 0.098 µM |
| N#Cc1cc(CN2CCC(N(N)CC(=O)N3CSCC3C#N)CC2)ccc1-c1ccccc1 (centres unmarked) [Compound No. 109, 3-[1-oxo-2-[1-(1-(2-cyanobiphenyl-4-yl)methyl)piperidine-4-yl]hydrazino]ethyl-4-cyanothiazolidine bis-trifluoroacetate] | 1.02 ± 0.14 µM |
| N#CC1CSCN1C(=O)CN(N)C1CCN(CCOc2ccccc2)CC1 (centres unmarked) [compound 123] | 0.676 ± 0.07 µM |
| N#CC1CSCN1C(=O)CN(N)C1CCN(CC(=O)NC2CCCCC2)CC1 (centres unmarked) [compound 125, 3-[1-oxo-2-(1-(1-(2-oxo-2-cyclohexyl)aminoethyl)piperidin-4-yl)hydrazino]ethyl-4-cyanothiazoline, bis-trifluoroacetate] | 0.506 ± 0.06 µM |
| N#CC1CSCN1C(=O)CN(N)C1CCN(CC(=O)Nc2ccc(F)c(Cl)c2)CC1 (centres unmarked) [compound 128, 3-[1-oxo-2-(1-(1-(2-oxo-2-(3-chloro-4-fluoro-phenyl)aminoethyl)piperidine-4-yl))hydrazino]ethyl-4-cyanothiazolidine, bis-trifluoroacetate] | 0.342 ± 0.035 µM |
| COC(=O)NN(CC(=O)N1CSCC1C#N)C1CCN(CC(=O)Nc2ccc(Cl)cn2)CC1 (centres unmarked) [compound 133, 3-[1-oxo-2-(1-(1-(2-oxo-2-(5-chloropyridin-2-yl)aminoethyl)piperidine-4-yl)-2-methoxycarbonyl)hydrazino]ethyl-4-cyanothiazolidine, trihydrochloride] | 40.4 ± 6.4 µM |
| N#CC1CSCN1C(=O)CN(N)C1CCN(CC(=O)Nc2nccs2)CC1 (centres unmarked) [compound 134, 3-[1-oxo-2-(1-(1-(2-oxo-2-(thiazole-2-yl)-aminoethyl)piperidin-4-yl))hydrazino]ethyl-4-cyanothiazolidine, tris-trifluoroacetate] | 0.205 ± 0.011 µM |
| N#CC1CSCN1C(=O)CN(N)C1CCN(CC(=O)Nc2ccccn2)CC1 (centres unmarked) [compound 136, 3-[1-oxo-2-(1-(1-(2-oxo-2-(pyridin-2-yl)aminoethyl)piperidine-4-yl))hydrazino]ethyl-4-cyanothiazolidine, tris-trifluoroacetate] | 0.21 ± 0.004 µM |
| N#CC1CSCN1C(=O)CN(N)C1CCN(CC(=O)Nc2nc3ccccc3s2)CC1 (centres unmarked) [compound 138] | 0.104 ± 0.009 µM |
| Cc1cnc(C(=O)NC2CCC(N(N)CC(=O)N3CSCC3C#N)CC2)cn1 (centres unmarked) [compound 139, 3-[1-oxo-2-(1-(1-(5-methylpyrazine-2-ylcarbonyl)amino-4-cyclohexyl)) hydrazino]ethyl-4-cyanothiazolidine, tris-trifluoroacetate] | 0.485 ± 0.01 µM |
| CC(C)(C)OC(=O)NNCC(=O)N1COCC1C#N (centres unmarked) [compound 147, 3-[-oxo-2-(2-ter-butyloxycarbonyl) hydrazino]ethyl-4-cyanooxazolidine] | 150 ± 43 µM |

Now from value to compound:

| IC50 | SMILES |
| --- | --- |
| 3.7 ± 0.5 µM | N#CC1CCCN1C(=O)CN(N)C1CCN(CC(=O)Nc2ccc(Cl)cn2)CC1 (centres unmarked) [compound 124, 3-[1-oxo-2-(1-(1-(2-oxo-2-(5-chloropyridin-2-yl)aminoethyl)piperidin-4-yl))hydrazino]ethyl-2-cyanopyrrolidine, tris-trifluoroacetate] |
| 1.77 ± 0.167 µM | N#CC1CSCN1C(=O)CN(N)C1CCN(CCC(=O)NC2CC2)CC1 (centres unmarked) [compound 132] |
| 1.47 ± 0.07 µM | N#Cc1ccc(NC(=O)CNC2CCC(N(N)CC(=O)N3CSCC3C#N)CC2)cc1 (centres unmarked) [Compound No. 112, 3-[1-oxo-2-[1-(4-(2-oxo-2-(4-cyanophenyl)aminoethyl)aminocyclohex-1-yl)]hydrazino]ethyl-4-cyanothiazolidine bis-trifluoroacetate] |
| 1.06 ± 0.3 µM | N#CC1CSCN1C(=O)CN(N)C1CCC(NCC(=O)Nc2ccc(Cl)cc2)CC1 (centres unmarked) [Compound No. 113, 3-[1-oxo-2-[1-(4-(2-oxo-2-(4-chlorophenyl)aminoethyl)aminocyclohex-1-yl)]hydrazino]ethyl-4-cyanothiazolidine bis-trifluoroacetate] |
| 1.03 ± 0.035 µM | COCCNC(=O)CN1CCC(N(N)CC(=O)N2CSCC2C#N)CC1 (centres unmarked) [compound 135, 3-[1-oxo-2-(1-(1-(2-oxo-2-(2-methoxyethyl)aminoethyl)piperidin-4-yl))hydrazino]ethyl-4-cyanothiazolidine, bis-trifluoroacetate] |
| 0.83 ± 0.05 µM | N#CC1CSCN1C(=O)CN(N)C1CCN(C(=O)CN2CCOCC2)CC1 (centres unmarked) [Compound No. 110, 3-[1-oxo-2-[1-(1-(1-oxo-2-(morpholin-4-yl)ethyl)piperidin-4-yl)]hydrazino]ethyl-4-cyanothiazolidine bis-trifluoroacetate] |
| 0.715 ± 0.06 µM | Cc1nc(NC(=O)CN2CCC(N(N)CC(=O)N3CSCC3C#N)CC2)sc1C (centres unmarked) [compound 145, trihydrochloride] |
| 0.563 ± 0.077 µM | N#CC1CSCN1C(=O)CN(N)C1CCC(NCC(=O)Nc2ccc(Cl)cn2)CC1 (centres unmarked) [Compound No. 111, 3-[1-oxo-2-[1-(4-(2-oxo-2-(5-chloropyridin-2-yl)aminoethyl)aminocyclohex-1-yl)]hydrazino]ethyl-4-cyanothiazolidine tris-trifluoroacetate] |
| 0.51 ± 0.05 µM | N#CC1CSCN1C(=O)CN(N)C1CCN(CC(=O)NCc2ccccc2F)CC1 (centres unmarked) [compound 122, 3-[1-oxo-2-(1-(1-(2-oxo-2-(2-flurobenzyl)aminoethyl)piperidine-4-yl))hydrazino]ethyl-4-cyanothiazolidine, bis-trifluoroacetate] |
| 0.468 ± 0.005 µM | CC(C)OCCCNC(=O)CN1CCC(N(N)CC(=O)N2CSCC2C#N)CC1 (centres unmarked) [compound 126] |
| 0.362 ± 0.06 µM | CCOC(=O)Cc1csc(NC(=O)CN2CCC(N(N)CC(=O)N3CSCC3C#N)CC2)n1 (centres unmarked) [compound 129, 3-[1-oxo-2-(1-(1-(2-oxo-2-(4-ethoxycarbonylmethylthiazole-2-yl)aminoethyl)piperidine-4-yl)) hydrazino]ethyl-4-cyanothiazolidine, tris-trifluoroacetate] |

Same assay, conditions: Porcine DPP-IV, Gly-Pro-pNA substrate, 30° C.; mean ± SD of three experiments except compound Nos. 133 & 139; trihydrochloride; read-out: IC50 (μM) Mean ± SD, inhibitory activity on DPP-IV enzyme activity

| SMILES | IC50 |
| --- | --- |
| N#CC1CSCN1C(=O)CN(N)C1CCN(CC(=O)Nc2nc3ccccc3s2)CC1 (centres unmarked) [compound 144, 3-[1-oxo-2-(1-(1-(2-oxo-2-(benzothiazole-2-yl)aminoethyl)piperidine-4-yl)) hydrazine]ethyl-4-cyanothiazolidine, trihydrochloride] | 0.167 ± 0.007 µM |
